One data set in a line: acute toxicity, in mice. Type of data set: in vivo. The note with it: for LD50: mouse, in vivo, mice. As to the method: (§1) The test materials were administered as the hydrochlorides, either intraperitoneally (or intravenously, in the course of cardiovascular tests), or orally.
Acute toxicity, in mice, is low, both intraperitoneally and orally.

In data set [1] the test system is reserpine-induced palpebral ptosis. The data set is described as follows: antagonism of reserpine-induced palpebral ptosis, in rats. Type of data set: in vivo. The conditions noted are these: Rattus norvegicus, po, as hydrochloride. On the procedure:
antagonism of reserpine-induced palpebral ptosis, in rats; The test materials were administered as the hydrochlorides, either intraperitoneally (or intravenously, in the course of cardiovascular tests), or orally.

In data set [2] the test system is edema of the paw on subcutaneous carrageenin injection. The data set is described as follows: inhibition of edema of the paw on subcutaneous carrageenin injection, in rats. The class given is in vivo. The conditions noted are these: Rattus norvegicus, po, read-out: Anti-inflammatory action ED50 p.o. On the procedure: inhibition of edema of the paw on subcutaneous carrageenin injection, in rats; The test materials were administered as the hydrochlorides, either intraperitoneally (or intravenously, in the course of cardiovascular tests), or orally.

For data set [3], the system named is blood pressure, femoral rate of flow. The data set is described as follows: cardiovascular action: blood pressure and femoral rate of flow, in dogs. The class given is in vivo. The note with it: i.v. As to the method:
determination of the blood pressure, of the femoral rate of flow and of the heart rate, and research for an antagonism or a potentiation of the catecholamines (epinephrine norepinephrine) on said parameters, in dogs; The test materials were administered as the hydrochlorides, either intraperitoneally (or intravenously, in the course of cardiovascular tests), or orally.

A further data set has as its system isolated ear artery. The data set is described as follows: action on the unstriated fibers of the isolated ear artery, in vitro. The note with it: for Action on isolated arteries: at 2 × 10^-6 g/ml. Set-up: species or system rabbits. The source says: (§2) research of an action on the unstriated fibers of the isolated saphena vein in dogs, and of the isolated ear artery of rabbits, in vitro.

In another data set the test system is isolated saphena vein. The data set is described as follows: action on the unstriated fibers of the isolated saphena vein, in vitro. Also on record: species or system dogs. The note with it: for Action on isolated veins: at 2 × 10^-6 g/ml.
From the text: as §2

Data set [4] deals with pain contractions subsequent to intraperitoneal injection of 0.75% acetic acid. Nature of the data set: Koster test: antagonism to pain contractions after intraperitoneal acetic acid, in mice. Type of data set: in vivo. The note with it: Mus musculus, po, read-out: Analgesic action, Koster test ED50 p.o. On the procedure:
antagonism to the pain contractions subsequent to intraperitoneal injection of 0.75% acetic acid, in mice (Koster test) The test materials were administered as the hydrochlorides, either intraperitoneally (or intravenously, in the course of cardiovascular tests), or orally.

In data set [5] the test system is d-amphetamine-induced stereotypes. The data set is described as follows: potentiation of d-amphetamine-induced stereotypes, in rats. The note with it: at 3 mg/kg, p.o. Type of data set: in vivo. As to the method: potentiation of d-amphetamine-induced stereotypes, in rats;
as §1

For the next data set, the system named is food intake. Nature of the data set: anorexiant effect (decreased food intake, in rats). The class given is in vivo. The conditions noted are these: at 3 mg/kg, p.o. As to the method: as §1
a central stimulant effect (increase of spontaneous motility, of amphetamine-induced stereotypes; of the antagonism of reserpine), sometimes accompanied by an anorexiant effect (decreased food intake, in rats);

The subject of data set [6] is pain, in mice placed on a heating plate. The data set is described as follows: Eddy test: inhibition of pain, in mice placed on a heating plate. Type of data set: in vivo. The note with it: Mus musculus, po, read-out: Analgesic action, Eddy test ED50 p.o. As to the method: inhibition of pain, in mice placed on a heating plate (Eddy test) The test materials were administered as the hydrochlorides, either intraperitoneally (or intravenously, in the course of cardiovascular tests), or orally.

Data set [7] deals with spontaneous motor activity. The data set is described as follows: spontaneous motor activity, in mice. Type of data set: in vivo. The note with it: at 3 mg/kg, p.o. On the procedure:
determination of the spontaneous motor activity, in mice; The test materials were administered as the hydrochlorides, either intraperitoneally (or intravenously, in the course of cardiovascular tests), or orally.

Another data set has as its system hypoxic asphyxia. Nature of the data set: cerebral protecting effect against hypoxic asphyxia under a reduced oxygen pressure. The class given is in vivo.
Data set [8] concerns gastric ulcers due to stress. Nature of the data set: inhibition of gastric ulcers due to stress, in rats. Type of data set: in vivo.

The term LD50 denotes the dose at which mortality reaches 50%. Read a high LD50 as lower toxicity. One may read the inhibition as the share of the control response that was lost under treatment. The low end stands for little suppression, the high end for strong suppression. As usually defined, the ED50 is the dose at which the effect has come halfway, by size or by number of responders.

Take `Cc1nc2c(s1)CC(N)CC2.Cl` (centres unmarked) [Example 1, 2-Methyl-6-amino-4,5,6,7-tetrahydro-benzo[d]thiazole hydrochloride]: the median lethal dose (LD50) in “acute toxicity, in mice” (ip) was less than 100 mg/kg; in “acute toxicity, in mice” (po) it was greater than 200 mg/kg. The same compound showed an inhibition at 10 mg/kg in data set [1] of 40%. For the same compound, the ED50 in data set [2] amounted to 30 mg/kg. Also, the “Cardiovascular action: blood pressure” value in data set [3] (0.5 mg/kg) is listed as “Hypotension”; in [3] (1-5 mg/kg), “Hypertension”. The “Action on isolated arteries” value with isolated ear artery is on record as “Contraction”. In the data set on isolated saphena vein, the “Action on isolated veins” value is recorded as “Contraction”.
Regarding `CNC1CCc2nc(C)sc2C1` (centres unmarked) [Example 2, 2-Methyl-6-methylamino-4,5,6,7-benzo[d]thiazole], the median lethal dose (LD50) in the data set “acute toxicity, in mice” (ip) is no less than 100 mg/kg; in “acute toxicity, in mice” (po) it was greater than 200 mg/kg. The 50% effective dose (ED50) in [4] was 30 mg/kg; in data set [2], no more than 10 mg/kg; in [6] it was 3 mg/kg. Moreover, in data set [5], the “Action on amphetamine-induced stereotypes” value is reported as “Increase”. Further, the Anorexiant action entry with food intake is given as “anorexiant action”. Also, the “Cardiovascular action: blood pressure” value in [3] (0.5 mg/kg) is “Hypotension”; in [3] (1 mg/kg), “Hypertension”. Besides, in the data set on isolated ear artery, the “Action on isolated arteries” value is given as “Contraction”. The “Action on isolated veins” value with isolated saphena vein was “Contraction”.
Consider `CNC1CCc2ncsc2C1.Cl` (centres unmarked) [Example 3, 6-Methylamino-4,5,6,7-tetrahydro-benzo[d]thiazole hydrochloride], for which the “toxicity at the active dosages” value in “acute toxicity, in mice” (at the active dosages) is recorded as “does not exhibit noteworthy toxicity”. Moreover, the LD50 in “acute toxicity, in mice” (ip) was greater than 200 mg/kg; in the data set “acute toxicity, in mice” (po) it was greater than 200 mg/kg. Besides, the ED50 was 5 mg/kg in data set [4], less than 30 mg/kg in [2] and no more than 3 mg/kg in data set [6]. Further, in [5], the “Action on amphetamine-induced stereotypes” value is “Increase”. Further, in the data set on food intake, the Anorexiant action result is recorded as “Anorexiant action”. Also, in [7], the “Action on spontaneous motility” value was “Increase”. In addition, the “Cardiovascular action: blood pressure” value in data set [3] (1-5 mg/kg) is “Hypertension”. In addition, in data set [3] (1-5 mg/kg), the “Cardiovascular action: femoral rate of flow” value is recorded as “substantial increase”. Moreover, the “cerebral protecting effect against hypoxic asphyxia” value in the data set on hypoxic asphyxia is “marked cerebral protecting effect”. Further, the “inhibiting effect on the development of gastric ulcers due to stress” value in [8] is “potent inhibiting effect”. The “Action on the isolated artery” value in the data set with isolated ear artery (concentration not given) turned out to be 0. Besides, in the data set on isolated saphena vein (concentration not given), the “Action on the isolated vein” value was “Contraction”.
With `CNC1CCCc2scnc21` (centres unmarked) [Example 4, 4-Methylamino-4,5,6,7-tetrahydro-benzo[d]thiazole], the 50% lethal dose (LD50) in “acute toxicity, in mice” (ip) is greater than 200 mg/kg; in the data set “acute toxicity, in mice” (po), greater than 200 mg/kg.
As for `NC1CCc2scnc2C1` (centres unmarked) [Example 7, 5-Amino-4,5,6,7-tetrahydro-benzo[d]thiazole], the 50% lethal dose (LD50) in “acute toxicity, in mice” (ip) is greater than 200 mg/kg; in the data set “acute toxicity, in mice” (po) it was greater than 200 mg/kg.

The values above are taken from patent US4208420A, “New benzo [d] thiazole derivatives, process for their preparation and their therapeutic applications” (priority 1977, dated 1980).
